Article PMC10814725, “In Vitro Anti-Inflammatory Study of Limonoids Isolated from Chisocheton Plants” (Current Issues in Molecular Biology, 2024)
Where two headings read alike, the source gives them in different places.

Legend:
[1] = test system: NF-κB activation in HEK-Blue hTLR4 cells; assay: SEAP reporter gene assay, agonist effect on NF-κB activation (without LPS); type: cell-based, human; conditions: 20 µM, compared to LPS (−)-treated cells
Method: (§1) The SEAP Reporter Gene Assay was conducted as previously described. HEK-Blue^TM hTLR4 cells (2 × 10^4 cells/well) were seeded in 96-well plates and were serum-starved for 24 h at 37 °C in a 5% carbon dioxide atmosphere. After incubation, the culture medium was aspirated, and the cells were washed with saline. High-glucose D-MEM supplemented with 0.1% FBS and 1% penicillin-streptomycin was added and treated with or without the 17 limonoids at a concentration of 20 µM for 1 h, followed by LPS addition at a concentration of 10 ng/mL for the LPS-stimulated group. After incubation at 37 °C for 18 h, the supernatants were collected and PNPP in PBS solution (0.8 mM, 100 μL) was added, followed by 4 h of shading at 25 °C. The optical density (OD) of the samples was measured at 405 nm using a microplate reader (BioTek Cytation 5 Cell Imaging Multimode Reader, Agilent Technologies, Santa Clara, CA, USA).

in vitro = type: cell-based; conditions: mouse
Method: (§2) The viability of HEK-Blue^TM hTLR4, […], and THP-1 cells was evaluated using the Dojindo Cell Counting Kit-8 (CCK-8) according to the manufacturer’s instructions. The viability of HEK-Blue^TM hTLR4 and THP-1 cells was assessed under identical conditions to the corresponding assay treatments. HEK-Blue^TM hTLR4 cells (2 × 10^4 cells/well) were seeded in 96-well plates and serum-starved for 24 h at 37 °C in a 5% CO2 atmosphere. After incubation, the culture medium was aspirated, and the cells were washed with saline. High-glucose D-MEM supplemented with 0.1% FBS and 1% penicillin–streptomycin was added and pretreated with or without the 17 limonoids at a concentration of 20 µM for 1 h, followed by LPS addition at a concentration of 10 ng/mL. After 18 h of incubation, a 10% (v/v) CCK-8 solution was added to each well and incubated at 37 °C for 1 h, and cell viability was calculated.

[2] = test system: TLR4-dependent NF-kB activation in HEK-Blue hTLR4 cells; assay: SEAP reporter gene assay, antagonist effect on LPS-stimulated TLR4-dependent NF-κB activation; type: cell-based, human; conditions: 20 µM, LPS 10 ng/mL, 18 h, vs. LPS stimulated-only group
Method: as §1

[3] = Cell viability by CCK-8, THP-1 cells; type: cell-based; conditions: human, PMA-differentiated THP-1 cells, 10 µM, 18 h
Method: as §2
The THP-1 cells at 5 × 10^4 cells/well were differentiated for 24 h in the presence of PMA (0.5 μM solution in medium). After 24 h of incubation, the culture medium was removed from the 96-well plate and the cells were washed with PBS. Fresh RPMI-1640 medium supplemented with 0.1% FBS and 1% penicillin–streptomycin was added to each well and incubated at 37 °C for overnight. The cells were pretreated with 17 limonoids at the corresponding concentration for 1 h followed by the addition of LPS (10 ng/mL) and incubated at 37 °C for 18 h. Furthermore, CCK-8 solution was added to each well with a final concentration was 10% (v/v) and incubated at 37 °C. After 1 h, the absorbance of each well was measured at […] by using a microplate reader (BioTek Cytation 5 Cell Imaging Multimode Reader). Cell viability was calculated using the following formula: % Cell viability=(Absorbance of sample−Absorbance of Background)/(Absorbance of control−Absorbance of Background)×100 where the absorbance of the sample is the absorbance of cells treated by the compound with or without LPS, the absorbance of the control is the absorbance of LPS (−)-treated cells, and the background absorbance is the absorbance of a well containing only the medium. The results were expressed as 100% cell viability.

[4] = Cell viability by CCK-8, HEK-Blue hTLR4 cells; type: cell-based; conditions: human
Method: as §2

[5] = test system: TNF-α, IL-6, IL-1β, and MCP-1; assay: ELISA of pro-inflammatory markers overall (TNF-α, IL-6, IL-1β, MCP-1) in LPS-stimulated THP-1 cells; type: cell-based; conditions: Homo sapiens, read-out: Overall IC50 values for the evaluated pro-inflammatory markers
Method: The logarithmic growth phase of THP-1 cells was achieved by seeding in 96-well plates at a density of 5 × 10^4 cells/well and differentiated for 24 h in the presence of PMA (0.5 μM solution in medium). After 24 h of incubation, the culture medium was removed from the 96-well plate and the cells were washed with PBS. Fresh RPMI-1640 medium supplemented with 0.1% FBS and 1% Penicillin–Streptomycin was added to each well and incubated at 37 °C overnight. The cells were pretreated with 17 limonoids at the corresponding concentration for 1 h, followed by the addition of LPS (10 ng/mL) and then incubation at 37 °C for 18 h. Finally, 50 μL of each culture supernatant solution was taken to determine the concentrations of IL-6, MCP-1, and IL-1β using the corresponding commercially available human ELISA kits following the manufacturer’s instructions. The analyte concentration in the supernatant was measured in pg/mL, and the inhibition level was expressed as a fold change compared to the LPS (−) control group. To determine the IC50 value, the dose-response data were normalized to the LPS-stimulated-only group, and the percentage of inhibition was calculated using the following formula: % Inhibition=(Absorbance of LPS+ control−Absorbance of compound treatment with LPS)/(Absorbance of LPS+ control−Absorbance of LPS− control)×100
Furthermore, the % inhibition data were interpolated into linear equations to determine the IC50 values.

CC1(C)C(=O)C=CC2(C)C1=C(O)C(=O)C1(C)C2(O)C(O)CC2(C)C(c3ccoc3)CC3OC321 (stereo not shown) [Compound 17, pentandricine G]
Agonist effect on NF-κB activation [1]: weak agonist effect | viability at 5 µM (in vitro): 77.5 ± 10.2% | viability at 10 µM (in vitro): 72.2 ± 4.68% | viability at 20 µM (in vitro): 73.1 ± 2.02% | Inhibition of SEAP release (NF-κB activity inhibition) [2]: significantly inhibited SEAP release | viability at 18 h, 10 µM ([3]; LPS 10 ng/mL, read-out: Viability Cell (%) THP-1 LPS-Induced (10 ng/mL)): > 99.9% | viability at 18 h, 10 µM ([3]; without LPS, read-out: Viability Cell (%) THP-1 Without LPS): 87.3 ± 4.18% | viability at 18 h, 20 µM ([4]; Viability Cell (%) HEK-Blue hTLR4 LPS-Induced (10 ng/mL)): 64.2 ± 9.05% | viability at 18 h, 20 µM ([4]; Viability Cell (%) HEK-Blue hTLR4 Without LPS): > 99.9% | IC50 [5]: < 20 µM
